Experimental data as given in ChEMBL document CHEMBL5576043, “Synthesis, radiosynthesis and biochemical evaluation of fluorinated analogues of sphingosine-1-phosphate receptor 3 specific antagonists using PET” (Bioorg Med Chem, 2024).

Tests used:
[1] = Stability in mouse serum measured after 90 mins by radio-HPLC analysis; type: ADME, cell-free; details: 1.5 h
[2] = Drug accumulation in C57/BL6 mouse liver at 5 MBq, iv administered as bolus injection and measured upto 15 mins by imaging analysis; type: ADME, organism-based; details: in vivo, 0.25 h
[3] = Drug uptake in C57/BL6 mouse lung at 5 MBq, iv administered as bolus injection and measured within 4.5 min by PET imaging analysis; type: ADME, organism-based; details: in vivo, 0.075 h
[4] = Drug accumulation in C57/BL6 mouse spleen at 5 MBq, iv administered as bolus injection and measured at 15 to 90 mins by imaging analysis; type: ADME, organism-based; details: in vivo, time 15-90 min
[5] = Drug uptake in C57/BL6 mouse muscle tissue at 5 MBq, iv administered as bolus injection and measured at 60 min by PET imaging analysis; type: ADME, organism-based; details: in vivo, 1 h
[6] = Drug uptake in C57/BL6 mouse blood at 5 MBq, iv administered as bolus injection and measured after 90 mins by PET imaging analysis; type: ADME, organism-based; details: in vivo, 1.5 h
[7] = Drug uptake in C57/BL6 mouse liver at 5 MBq, iv administered as bolus injection and measured at ~5 min by PET imaging analysis; type: ADME, organism-based; details: in vivo
[8] = Drug uptake in C57/BL6 mouse lymph node at 5 MBq, iv administered as bolus injection and measured at 60 min by PET imaging analysis; type: ADME, organism-based; details: in vivo, 1 h
[9] = Drug uptake in C57/BL6 mouse blood at 5 MBq, iv administered as bolus injection and measured at 12 sec by PET imaging analysis; type: ADME, organism-based; details: in vivo, 12 s
[10] = Drug metabolism in mouse serum assessed as decomposition mediated metabolite formation at 37 degreeC measured after 10 to 90 mins by radio-HPLC analysis; type: ADME, cell-free; details: time 10-90 min
[11] = Drug uptake in C57/BL6 mouse liver at 5 MBq, iv administered as bolus injection and measured at 90 min by PET imaging analysis; type: ADME, organism-based; details: in vivo, 1.5 h
[12] = Drug uptake in C57/BL6 mouse heart at 5 MBq, iv administered as bolus injection and measured at 14.2 min by PET imaging analysis; type: ADME, organism-based; details: in vivo, 0.2367 h
[13] = Drug uptake in C57/BL6 mouse heart at 5 MBq, iv administered as bolus injection and measured at 24 sec by PET imaging analysis; type: ADME, organism-based; details: in vivo, 24 s
[14] = Drug accumulation in C57/BL6 mouse lungs at 5 MBq, iv administered as bolus injection and measured at 0 to 5 mins by imaging analysis; type: ADME, organism-based, Lung; details: in vivo, time 0-5 min
[15] = Drug metabolism in formulated solution assessed as decomposition mediated metabolite formation by measuring retention time after 180 mins by radio-HPLC analysis; type: ADME; details: 3 h
[16] = Drug uptake in C57/BL6 mouse spleen at 5 MBq, iv administered as bolus injection and measured after 90 min by PET imaging analysis; type: ADME, organism-based; details: in vivo, 1.5 h
[17] = Drug uptake in C57/BL6 mouse spleen at 5 MBq, iv administered as bolus injection and measured within 4.5 min by PET imaging analysis; type: ADME, organism-based; details: in vivo, 0.075 h
[18] = 1-Octanol/PBS partition coefficient, logD of the compound at pH 7.4 incubated for 3 mins; type: physicochemical
[19] = Drug metabolism in human serum assessed as decomposition mediated metabolite formation measured after 90 mins by radio-HPLC analysis; type: ADME, cell-free; details: 1.5 h
[20] = Drug uptake in C57/BL6 mouse lung at 5 MBq, iv administered as bolus injection and measured at 12 sec by PET imaging analysis; type: ADME, organism-based; details: in vivo, 12 s
[21] = Drug uptake in C57/BL6 mouse brain at 5 MBq, iv administered as bolus injection and measured at 90 min by PET imaging analysis; type: ADME, organism-based; details: in vivo, 1.5 h
[22] = Drug uptake in C57/BL6 mouse heart at 5 MBq, iv administered as bolus injection and measured at 4.2 min by PET imaging analysis; type: ADME, organism-based; details: in vivo, 0.07 h
[23] = Drug uptake in C57/BL6 mouse kidney at 5 MBq, iv administered as bolus injection and measured for 90 mins by imaging analysis; type: ADME, organism-based; details: in vivo, 1.5 h
[24] = Drug uptake in C57/BL6 mouse blood at 5 MBq, iv administered as bolus injection and measured within 24 sec by PET imaging analysis; type: ADME, organism-based; details: in vivo, 24 s
[25] = Drug metabolism in formulated solution assessed as 4-[18F]fluoroaniline metabolite formation by measuring retention time after 180 mins by radio-HPLC analysis; type: ADME; details: 3 h
[26] = Drug uptake in C57/BL6 mouse heart at 5 MBq, iv administered as bolus injection and measured at 90 min by PET imaging analysis; type: ADME, organism-based; details: in vivo, 1.5 h
[27] = Drug accumulation in C57/BL6 mouse heart at 5 MBq, iv administered as bolus injection and measured at 15 to 90 mins by imaging analysis; type: ADME, organism-based; details: in vivo, time 15-90 min
[28] = Drug accumulation in C57/BL6 mouse spleen at 5 MBq, iv administered as bolus injection and measured at 6 to 15 mins by imaging analysis; type: ADME, organism-based; details: in vivo, time 6-15 min
[29] = Drug uptake in C57/BL6 mouse intestine at 5 MBq, iv administered as bolus injection and measured at 15 to 90 mins by imaging analysis; type: ADME, organism-based; details: in vivo, time 15-90 min
[30] = Retention time of compound by radio-HPLC analysis; type: physicochemical
[31] = Drug uptake in C57/BL6 mouse kidney at 5 MBq, iv administered as bolus injection and measured at 90 min by PET imaging analysis; type: ADME, organism-based; details: in vivo, 1.5 h
[32] = Drug accumulation in C57/BL6 mouse heart at 5 MBq, iv administered as bolus injection and measured at 6 to 15 mins by imaging analysis; type: ADME, organism-based; details: in vivo, time 6-15 min
[33] = Drug uptake in C57/BL6 mouse kidney at 5 MBq, iv administered as bolus injection and measured at 1.2 min by PET imaging analysis; type: ADME, organism-based; details: in vivo, 0.02 h
[34] = Drug uptake in C57/BL6 mouse urinary bladder at 5 MBq, iv administered as bolus injection and measured for 90 mins by imaging analysis; type: ADME, organism-based; details: in vivo, 1.5 h

Stability [1]: Stable
Drug uptake [2]: Active
Drug uptake [3]: Not Active
Drug uptake [4]: Not Active
Drug uptake [5]: 1.9 %ID/cm3
Drug uptake [6]: Not Active
Drug uptake [7]: 41 %ID/cm3
Drug uptake [8]: 2.1 %ID/cm3
Drug uptake [9]: 37.5 %ID/cm3
Drug metabolism [10]: Metabolite_Detected
Drug uptake [11]: 10 %ID/cm3
Drug uptake [12]: 6 %ID/cm3
Drug uptake [13]: 7 %ID/cm3
Drug uptake [14]: Active
Retention_time [15]: 16.9 min
Drug uptake [16]: 3 %ID/cm3
Drug uptake [17]: 11 %ID/cm3
logD at 0.05 h [18]: 1.55
Drug metabolism [19]: ~ 7%
Drug uptake [20]: 13 %ID/cm3
Drug uptake [21]: 3.9 %ID/cm3
Drug uptake [22]: 5 %ID/cm3
Drug uptake [23]: Not Active
Drug uptake [24]: Not Active
Retention_time [25]: 4.5 min
Drug uptake [26]: 3 %ID/cm3
Drug uptake [27]: Not Active
Drug uptake [28]: Active
Drug uptake [29]: Active
Retention_time [30]: 15.9 min
Drug uptake [31]: 4 %ID/cm3
Drug uptake [32]: Active
Drug uptake [33]: 8 %ID/cm3
Drug uptake [34]: Not Active
Structure (SMILES): CC(C)(C)C(=O)/C(=N\Nc1ccc(Cl)cc1)Nc1ccc([18F])cc1
